Assays:
[1] = biological target: T1, von Hippel-Lindau disease tumor suppressor/Androgen receptor (Homo sapiens, UniProt P10275+P40337); assay: Protac activity at VHL (unknown origin)/Androgen receptor (unknown origin) assessed as full-length Androgen receptor degradation measured by immunoblotting method; format: protein assay
Target sequence in this assay (P10275 whole entry, canonical isoform): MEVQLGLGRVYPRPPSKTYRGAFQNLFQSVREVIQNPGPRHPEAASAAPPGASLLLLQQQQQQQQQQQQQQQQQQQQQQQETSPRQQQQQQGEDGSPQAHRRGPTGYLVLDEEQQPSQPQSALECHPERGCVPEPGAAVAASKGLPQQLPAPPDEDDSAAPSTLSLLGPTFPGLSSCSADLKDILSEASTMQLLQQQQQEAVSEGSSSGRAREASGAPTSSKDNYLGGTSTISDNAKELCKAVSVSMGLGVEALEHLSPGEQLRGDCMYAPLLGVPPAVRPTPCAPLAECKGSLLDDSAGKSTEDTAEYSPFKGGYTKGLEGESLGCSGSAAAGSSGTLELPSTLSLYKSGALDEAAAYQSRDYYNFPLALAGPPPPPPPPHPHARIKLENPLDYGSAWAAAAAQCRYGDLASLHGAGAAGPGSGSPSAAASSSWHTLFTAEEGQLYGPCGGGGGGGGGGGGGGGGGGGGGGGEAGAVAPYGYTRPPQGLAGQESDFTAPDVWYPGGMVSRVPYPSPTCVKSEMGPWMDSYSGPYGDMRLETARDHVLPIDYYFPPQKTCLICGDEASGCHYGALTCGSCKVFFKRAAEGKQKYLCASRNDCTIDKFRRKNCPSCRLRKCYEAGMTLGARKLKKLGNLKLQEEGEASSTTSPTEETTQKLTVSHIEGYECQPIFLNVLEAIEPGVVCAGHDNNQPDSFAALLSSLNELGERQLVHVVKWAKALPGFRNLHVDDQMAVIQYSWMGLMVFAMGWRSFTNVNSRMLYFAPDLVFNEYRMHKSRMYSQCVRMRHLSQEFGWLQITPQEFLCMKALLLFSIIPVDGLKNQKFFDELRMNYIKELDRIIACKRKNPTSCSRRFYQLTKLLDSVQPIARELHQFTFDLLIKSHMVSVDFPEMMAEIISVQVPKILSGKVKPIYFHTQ
Target sequence in this assay (P40337 whole entry, canonical isoform): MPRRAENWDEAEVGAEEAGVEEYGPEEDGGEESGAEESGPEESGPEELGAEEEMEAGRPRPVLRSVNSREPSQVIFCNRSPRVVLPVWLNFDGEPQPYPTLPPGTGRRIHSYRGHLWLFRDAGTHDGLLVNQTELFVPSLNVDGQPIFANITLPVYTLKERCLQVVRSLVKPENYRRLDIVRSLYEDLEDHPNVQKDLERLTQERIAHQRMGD

[2] = biological target: T1, von Hippel-Lindau disease tumor suppressor/Androgen receptor; assay: Protac activity at VHL (unknown origin)/Androgen receptor splice variant7 (unknown origin) assessed as Androgen receptor degradation measured by immunoblotting method
Target sequence in this assay (P10275 whole entry, looked up, change not shown, canonical isoform): as the sequence (P10275 whole entry, canonical isoform) above
Target sequence in this assay (P40337 whole entry, looked up, change not shown, canonical isoform): as the sequence (P40337 whole entry, canonical isoform) above

[3] = biological target: T1, von Hippel-Lindau disease tumor suppressor/Androgen receptor; assay: Protac activity at VHL/Androgen receptor in human LNCaP cells assessed as Androgen receptor degradation; format: cell-based
Target sequence in this assay (P10275 whole entry, canonical isoform): as the sequence (P10275 whole entry, canonical isoform) above
Target sequence in this assay (P40337 whole entry, canonical isoform): as the sequence (P40337 whole entry, canonical isoform) above

[4] = biological target: T1, von Hippel-Lindau disease tumor suppressor/Androgen receptor; assay: Protac activity at VHL/Androgen receptor in human VCaP cells assessed as Androgen receptor degradation; format: cell-based
Target sequence in this assay (P10275 whole entry, canonical isoform): as the sequence (P10275 whole entry, canonical isoform) above
Target sequence in this assay (P40337 whole entry, canonical isoform): as the sequence (P40337 whole entry, canonical isoform) above

Compound	DC50 [1] [nM]	DC50 [2] [nM]	DC50 [3] [nM]	DC50 [4] [nM]
Cc1ncsc1-c1ccc([C@H](C)NC(=O)[C@@H]2C[C@@H](O)CN2C(=O)[C@@H](NC(=O)CCCCNC(=O)COc2c(-c3csc(N4CCOCC4)n3)ccc(F)c2F)C(C)(C)C)cc1	2000	370		
Cc1ncsc1-c1ccc([C@H](CC(=O)N2CCC(N3CCC(C#Cc4ccc(C(=O)N[C@H]5C(C)(C)[C@H](Oc6ccc(C#N)c(Cl)c6)C5(C)C)cc4)CC3)CC2)NC(=O)[C@@H]2C[C@@H](O)CN2C(=O)[C@@H](NC(=O)C2(F)CC2)C(C)(C)C)cc1			< 1	< 1
